Source: the NIST ThermoML archive (doi:10.1016/j.jct.2008.12.022)
Numbers after ± are expanded uncertainties.

Details: 101.33 kPa, Liquid; for viscosity: Capillary tube (Ostwald / Ubbelohde) method; for mass density: Pycnometric method

Structure (SMILES) | viscosity (303.15 K) | mass density (303.15 K) | viscosity (313.15 K) | mass density (313.15 K) | viscosity (323.15 K) | mass density (323.15 K) | viscosity (333.15 K) | mass density (333.15 K) | viscosity (343.15 K) | mass density (343.15 K)
OCCOCCOCCO [triethylene glycol] | 29.27 ± 0.7 mPa·s | 1116 ± 2 kg/m3 | 18.96 ± 0.46 mPa·s | 1109 ± 2 kg/m3 | 12.96 ± 0.31 mPa·s | 1101 ± 2 kg/m3 | 9.288 ± 0.22 mPa·s | 1093 ± 2 kg/m3 | 6.906 ± 0.17 mPa·s | 1086 ± 2 kg/m3
CC(O)CO (stereo not given) [1,2-propanediol] | 32.4 ± 0.73 mPa·s | 1029 ± 1 kg/m3 | 19.12 ± 0.45 mPa·s | 1021 ± 1 kg/m3 | 12.1 ± 0.28 mPa·s | 1014 ± 1 kg/m3 | 8.19 ± 0.18 mPa·s | 1006 ± 1 kg/m3 | 5.704 ± 0.13 mPa·s | 999 ± 1 kg/m3
